One assay concerns the target T1, KAT6A (Homo sapiens, UniProt Q92794).
T1 construct: His-TEV tag (N, cleaved yes); made in house
Nature of the assay: KAT6A enzyme inhibition assay (SAMDI mass spectrometry). It is filed as biochemical. The settings on record: His-TEV-KAT6A 501-784 enzyme construct.

For another assay, the target named is T2, KAT5 (Homo sapiens, UniProt Q92993).
T2 construct: His-TEV tag (N, cleaved yes); made in house
Nature of the assay: KAT5 enzyme inhibition assay (SAMDI mass spectrometry). The settings on record: His-TEV-FL KAT5-Flag enzyme construct. The class given is biochemical.

The structures appear in SMILES notation.

T2 sequence (Q92993 with tags, fused parts or gaps): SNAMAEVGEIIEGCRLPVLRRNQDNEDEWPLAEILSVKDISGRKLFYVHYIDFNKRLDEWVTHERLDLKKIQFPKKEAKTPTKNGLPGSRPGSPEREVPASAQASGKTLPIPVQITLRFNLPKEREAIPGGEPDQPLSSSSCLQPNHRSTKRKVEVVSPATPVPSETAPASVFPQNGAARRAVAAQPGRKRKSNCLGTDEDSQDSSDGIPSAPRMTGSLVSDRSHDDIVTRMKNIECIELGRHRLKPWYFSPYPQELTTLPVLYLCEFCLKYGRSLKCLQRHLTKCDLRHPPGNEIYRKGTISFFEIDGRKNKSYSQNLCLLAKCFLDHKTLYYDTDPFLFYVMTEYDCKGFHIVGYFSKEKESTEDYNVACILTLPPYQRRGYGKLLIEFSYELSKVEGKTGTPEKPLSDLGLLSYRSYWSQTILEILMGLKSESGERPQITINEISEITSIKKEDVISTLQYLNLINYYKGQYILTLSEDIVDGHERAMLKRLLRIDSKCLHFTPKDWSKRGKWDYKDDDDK
T1 sequence (Q92794 with tags, fused parts or gaps): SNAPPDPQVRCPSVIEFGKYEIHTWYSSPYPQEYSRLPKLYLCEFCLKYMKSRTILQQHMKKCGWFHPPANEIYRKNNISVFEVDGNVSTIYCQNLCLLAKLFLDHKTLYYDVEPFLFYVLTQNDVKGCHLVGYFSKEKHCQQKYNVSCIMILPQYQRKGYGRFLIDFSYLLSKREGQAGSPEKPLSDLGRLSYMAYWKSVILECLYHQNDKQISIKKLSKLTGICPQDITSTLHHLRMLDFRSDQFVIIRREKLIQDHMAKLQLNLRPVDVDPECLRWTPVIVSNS

`O=C(NNS(=O)(=O)C1CCOCC1)c1cc(C(=O)N2CCOCC2)cc(Cl)c1F` [Compound I-439]: the 50% inhibitory concentration (IC50) on KAT6A and against KAT5 was greater than 100 µM in each case.
`O=C(NNS(=O)(=O)C1CCOCC1)c1cc(Cn2ccnc2)cc(Cl)c1F` [Compound I-440]: the IC50 at KAT6A and on KAT5 was greater than 100 µM each time.
Take `Cn1cnc2cc(-c3ccccc3)cc(C(=O)NNS(=O)(=O)C3CCCCC3)c21` [Compound I-441]: the IC50 against KAT6A and against KAT5 was greater than 100 µM in each case.
As to `CN1CCN(Cc2cc(Cl)c(F)c(C(=O)NNS(=O)(=O)C3CCOCC3)c2)CC1` [Compound I-442], the IC50 on KAT6A and against KAT5 was greater than 100 µM in each case.
With `Cc1cc(-c2cccc(C(=O)OCc3ccccc3)c2)cc(C(=O)NNS(=O)(=O)C2CCOCC2)c1F` [Compound I-443], the IC50 at KAT6A and against KAT5 was no more than 10 µM throughout.
Regarding `Cc1cc(-c2cccc(C(=O)O)c2)cc(C(=O)NNS(=O)(=O)C2CCCCC2)c1F` [Compound I-444], the IC50 against KAT6A and on KAT5 was no more than 10 µM throughout.
Turning to `COCCNC(=O)c1cccc(-c2cc(C)c(F)c(C(=O)NNS(=O)(=O)C3CCCCC3)c2)c1` [Compound I-445], the half-inhibitory concentration (IC50) against KAT6A is greater than 100 µM; on KAT5, 10 to 50 µM.
For `Cc1cc(-c2cccc(C(=O)OCc3ccccc3)c2)cc(C(=O)NNS(=O)(=O)CC2CCCCC2)c1F` [Compound I-446], in that order: 50 to 100 µM and 10 to 50 µM.
In the case of `COCCNC(=O)c1cccc(-c2cc(C)c(F)c(C(=O)NNS(=O)(=O)CC3CCCCC3)c2)c1` [Compound I-447], the IC50 at KAT6A was 10 to 50 µM; against KAT5 it was no more than 10 µM.
For `O=C(NNS(=O)(=O)C1CCOCC1)c1cc(CN2CCOCC2)cc(Cl)c1F` [Compound I-448], in that order: greater than 100 µM and greater than 100 µM.
For `Cc1cc(-c2cccc(C(=O)OCc3ccccc3)c2)cc(C(=O)NNS(=O)(=O)c2ccccc2)c1F` [Compound I-449], the concentration for half-maximal inhibition (IC50) against KAT6A and at KAT5 was 50 to 100 µM throughout.
For the compound `Cc1cccc(-c2ncc(C(=O)Nc3ccccc3)[nH]2)c1F` [Compound I-450], the IC50 against KAT6A and on KAT5 was no more than 10 µM throughout.
In the case of `COCc1cc(Cl)c(F)c(C(=O)NNS(=O)(=O)C2CCCCC2)c1` [Compound I-451], the concentration for half-maximal inhibition (IC50) on KAT6A was 10 to 50 µM; at KAT5, no more than 10 µM.
For `COCc1cc(Cl)c(F)c(C(=O)NNS(=O)(=O)CC2CCOCC2)c1` [Compound I-452], in that order: no more than 10 µM and no more than 10 µM.
Turning to `COCc1cc(Cl)c(F)c(C(=O)NNS(=O)(=O)C2CCOCC2)c1` [Compound I-453], the half-inhibitory concentration (IC50) on KAT6A and at KAT5 was greater than 100 µM each time.
For the compound `O=C(NNS(=O)(=O)C1CCOCC1)c1cc(CN2CCCCC2)cc(Cl)c1F` [Compound I-454], the concentration for half-maximal inhibition (IC50) is 10 to 50 µM at KAT6A and 50 to 100 µM against KAT5.
On the same counts, the results for `Nc1ccc(-c2cc(Cl)c(F)c(C(=O)NNS(=O)(=O)C3CCOCC3)c2)cc1` [Compound I-455] are greater than 100 µM and 10 to 50 µM.
With `O=C(NNS(=O)(=O)C1CCCCC1)c1cc(CO)cc(Cl)c1F` [Compound I-456], the IC50 on KAT6A and on KAT5 was greater than 100 µM each time.
In the case of `O=C(NNS(=O)(=O)CC1CCCCC1)c1cc(CO)cc(Cl)c1F` [Compound I-457], the IC50 against KAT6A and on KAT5 was no more than 10 µM each time.
For the compound `CNC(=O)c1cccc(-c2cc(C)c(F)c(C(=O)NNS(=O)(=O)C3CCCCC3)c2)c1` [Compound I-458], the IC50 against KAT6A and against KAT5 was greater than 100 µM in each case.
As to `O=C(NNS(=O)(=O)C1CCOCC1)c1cc(-c2ccc(O)cc2)cc(Cl)c1F` [Compound I-459], the values for the 50% inhibitory concentration (IC50) against KAT6A and at KAT5 were no more than 10 µM and greater than 100 µM, respectively.
For `O=C(NNS(=O)(=O)C1CCCCC1)c1cc(-c2ccc(O)cc2)cc(Cl)c1F` [Compound I-460], the IC50 at KAT6A is 10 to 50 µM; at KAT5, no more than 10 µM.
Consider `O=C(NNS(=O)(=O)C1CCCCC1)c1c(Cl)ccc(Cl)c1F` [Compound I-461], for which the IC50 against KAT6A and on KAT5 was greater than 100 µM each time.
Take `Cc1cc(C(C)(C)C)cc(C(=O)NNS(=O)(=O)c2ccccc2)c1O` [Compound I-462]: the 50% inhibitory concentration (IC50) at KAT6A and against KAT5 was greater than 100 µM in each case.
In the case of `Nc1ccc(-c2cc(Cl)c(F)c(C(=O)NNS(=O)(=O)C3CCCCC3)c2)cc1` [Compound I-463], the 50% inhibitory concentration (IC50) against KAT6A was greater than 100 µM; against KAT5, no more than 10 µM.
On to `O=C(NNS(=O)(=O)C1CCOCC1)c1cc(Cn2cccn2)cc(Cl)c1F` [Compound I-464], for which the IC50 against KAT6A and on KAT5 was greater than 100 µM in each case.
Turning to `O=C(NNS(=O)(=O)C1CCOCC1)c1cc(CO)cc(Cl)c1F` [Compound I-465], the IC50 was 50 to 100 µM against KAT6A and greater than 100 µM against KAT5.
On to `O=C(NNS(=O)(=O)CC1CCOCC1)c1cc(CO)cc(Cl)c1F` [Compound I-466], for which the IC50 at KAT6A and against KAT5 was 10 to 50 µM each time.
Turning to `O=C(NNS(=O)(=O)C1CCCCC1)c1c(F)c(-c2ccccc2)cc2nc[nH]c12` [Compound I-467], the IC50 against KAT6A and against KAT5 was greater than 100 µM each time.
Turning to `Cn1cnc2c(C(=O)NNS(=O)(=O)C3CCCCC3)c(F)c(-c3ccccc3)cc21` [Compound I-468], the IC50 at KAT6A and against KAT5 was greater than 100 µM throughout.
Turning to `Cc1nn(C)c(C(=O)NNS(=O)(=O)C2CCCCC2)c1F` [Compound I-469], the IC50 against KAT6A and at KAT5 was greater than 100 µM throughout.
For `O=C(NCCO)c1cc(Cl)c(F)c(C(=O)NNS(=O)(=O)C2CCCCC2)c1` [Compound I-470], the IC50 against KAT6A was greater than 100 µM; against KAT5, 50 to 100 µM.
Take `COCCN(C)C(=O)c1cc(Cl)c(F)c(C(=O)NNS(=O)(=O)C2CCOCC2)c1` [Compound I-471]: the IC50 on KAT6A and against KAT5 was greater than 100 µM in each case.
Regarding `CCNC(=O)c1cc(Cl)c(F)c(C(=O)NNS(=O)(=O)C2CCCCC2)c1` [Compound I-472], the half-inhibitory concentration (IC50) on KAT6A and against KAT5 was greater than 100 µM throughout.
For `O=C(NC1CCC1)c1cc(Cl)c(F)c(C(=O)NNS(=O)(=O)C2CCCCC2)c1` [Compound I-473], the 50% inhibitory concentration (IC50) against KAT6A and on KAT5 was greater than 100 µM throughout.
For the compound `CNC(=O)CCNC(=O)c1cc(Cl)c(F)c(C(=O)NNS(=O)(=O)C2CCCCC2)c1` [Compound I-474], the IC50 against KAT6A and against KAT5 was greater than 100 µM in each case.
In the case of `Cc1c(F)c(C(=O)NNS(=O)(=O)C2CCCCC2)nn1C` [Compound I-475], the concentration for half-maximal inhibition (IC50) against KAT6A and against KAT5 was greater than 100 µM each time.
In the case of `Cc1cc(-c2ccccc2)cc(C(=O)NNCC(F)(F)F)c1F` [Compound I-476], the half-maximal inhibitory concentration (IC50) against KAT6A and on KAT5 was greater than 100 µM in each case.
Turning to `COCCNC(=O)c1cccc(-c2cc(C)c(F)c(C(=O)N(N)S(=O)(=O)c3ccccc3)c2)c1` [Compound I-477], the concentration for half-maximal inhibition (IC50) against KAT6A and against KAT5 was greater than 100 µM each time.
For `Cn1cc(-c2ccc(F)c(Cl)c2)nc1C(=O)NNS(=O)(=O)CC1CCOCC1` [Compound I-478], the IC50 against KAT6A and against KAT5 was greater than 100 µM throughout.
For the compound `O=C(NNS(=O)(=O)C1CCCCC1)c1nc(-c2ccccc2)cc(Cl)c1F` [Compound I-479], the IC50 is 50 to 100 µM against KAT6A and greater than 100 µM against KAT5.
For `O=C(NCCO)c1cc(Cl)c(F)c(C(=O)NNS(=O)(=O)C2CCOCC2)c1` [Compound I-480], in that order: greater than 100 µM and greater than 100 µM.
Consider `CNC(=O)Cn1nc(C(=O)NNS(=O)(=O)C2CCCCC2)cc1C` [Compound I-481], for which the half-inhibitory concentration (IC50) on KAT6A and on KAT5 was greater than 100 µM throughout.
Regarding `O=C(NNS(=O)(=O)C1CCOCC1)c1cc(-c2cccc(CO)c2)cc(Cl)c1F` [Compound I-482], the IC50 against KAT6A and against KAT5 was 10 to 50 µM each time.
For the compound `Cc1cc(-c2ccccc2)nc(C(=O)NNS(=O)(=O)C2CCCCC2)c1F` [Compound I-483], the concentration for half-maximal inhibition (IC50) at KAT6A is greater than 100 µM; against KAT5, 50 to 100 µM.
Take `Cc1cc(F)cc(-c2cc(Cl)c(F)c(C(=O)NNS(=O)(=O)C3CCCCC3)c2)c1` [Compound I-484]: the IC50 at KAT6A and on KAT5 was 10 to 50 µM throughout.
As for `O=C(NNS(=O)(=O)C1CCCCC1)c1cc(-c2cccc(CO)c2)cc(Cl)c1F` [Compound I-485], the IC50 against KAT6A is 10 to 50 µM; against KAT5, no more than 10 µM.
Regarding `COc1cc(F)cc(-c2cc(Cl)c(F)c(C(=O)NNS(=O)(=O)C3CCCCC3)c2)c1` [Compound I-486], the IC50 at KAT6A and at KAT5 was 10 to 50 µM throughout.
For the compound `O=C(NNS(=O)(=O)C1CCCCC1)c1cc(-c2cc(Cl)cc(Cl)c2)cc(Cl)c1F` [Compound I-487], the IC50 at KAT6A and against KAT5 was 10 to 50 µM in each case.
Take `O=C(NC1CCC1)c1cc(Cl)c(F)c(C(=O)NNS(=O)(=O)C2CCOCC2)c1` [Compound I-488]: the half-maximal inhibitory concentration (IC50) on KAT6A and on KAT5 was greater than 100 µM each time.
Regarding `CNC(=O)Cn1nc(C(=O)NNS(=O)(=O)C2CCCCC2)c(F)c1C` [Compound I-489], the concentration for half-maximal inhibition (IC50) at KAT6A and at KAT5 was greater than 100 µM throughout.
For `O=C(NNS(=O)(=O)C1CCCCC1)c1cc(-c2cc(F)cc(Cl)c2)cc(Cl)c1F` [Compound I-490], the IC50 was in the range of 10 to 50 µM on KAT6A and 50 to 100 µM on KAT5.
For `CNC(=O)c1cc(Cl)c(F)c(C(=O)NNS(=O)(=O)C2CCOCC2)c1` [Compound I-491], the half-inhibitory concentration (IC50) against KAT6A and against KAT5 was greater than 100 µM throughout.
For the compound `CCNC(=O)c1cc(Cl)c(F)c(C(=O)NNS(=O)(=O)C2CCOCC2)c1` [Compound I-492], the IC50 against KAT6A and against KAT5 was greater than 100 µM throughout.
On to `CNC(=O)CCNC(=O)c1cc(Cl)c(F)c(C(=O)NNS(=O)(=O)C2CCOCC2)c1` [Compound I-493], for which the half-inhibitory concentration (IC50) against KAT6A and against KAT5 was greater than 100 µM in each case.
With `COCCNC(=O)c1cccc(-c2cc(C)c(F)c(C(=O)NNS(=O)(=O)c3ccccc3)c2)c1` [Compound I-494], the values for the IC50 against KAT6A and at KAT5 were no more than 10 µM and 10 to 50 µM, respectively.
As for `O=C(NNS(=O)(=O)CC1CCCCC1)c1cc(-c2c[nH]cn2)ccc1F` [Compound I-495], the IC50 at KAT6A and against KAT5 was 10 to 50 µM each time.

(Values after patent US20220267260A1, “COMPOUNDS CONTAINING A SULFONIC GROUP AS KAT INHIBITORS” (Epizyme, Inc., priority 2016, published 2022).)
